According to patent US7977327B2, “Substituted pyrrolidine derivative” (Daiichi Sankyo Company, Limited, priority 2004, dated 2011):
In brackets after ≈: the same amount, converted by molar mass. Where a name gives a salt, the structure may show the parent alone. Read-outs that look alike come from different tables or passages of the source. Marks after values point to notes of the source that are not given here.

How the values were obtained:
[1] = test system: Slc:ddY male mice; assay: Effect of inducing convulsion, intracisternal administration to mice; type: in vivo; conditions: i.cist., Probit method
Method: The compounds (Compound Nos. 1, 2, and 3) of the present invention and Comparative Compounds A and B were individually dissolved in 5% glucose, to thereby prepare several samples to be tested. Groups of six-week-old Slc:ddY male mice (body weight: 23.9 to 27.4 g), each group consisting of 6 mice, were employed in the test. Each of the above-prepared samples was administered intracisternally to each mouse belonging to each group at concentrations shown in Tables 2 and 3 (5 μL/mouse). During 30 minutes after administration, it was observed whether each mouse suffered convulsion or died in an individual cage. Administration was performed according to the method described by Ueda, et al. (Reference 1).
Reference 1: Ueda H, Amano H, Shiomi H, Takagi H: Comparison of the analgesic effects of various opioid peptides by a newly devised intracisternal injection technique in conscious mice. Eur J Pharmacol. 1979; 56: 265-8.
Significant difference test between groups was performed in terms of incidence of convulsion according to the Fisher's direct probability calculation method (one-sided test, level of significance: P<0.05). On the basis of percentile incidence of convulsion, CD50 (50% concentration for inducing convulsion) and 95% confidence limit were calculated by the Probit method.

[2] = test system: Chinese hamster lung (CHL/IU) cells; assay: Effect of inducing chromosomal aberration; type: cell-based; conditions: for Percentile induction of structural aberration (TA %): 24 hours, CHL/IU cells; for Significant increase in number of the cells exhibiting chromosomal aberration: at a concentration of up to 100 μg/mL
Method: From each sample solution, samples to be tested having a concentration of 1, 3, 10, 30, 50, and 100 μg/mL (as reduced to free form) were prepared. As a negative control, 0.1 mol/L NaOH was employed.
Chinese hamster lung (CHL/IU) cells in logarithmic growth phase were employed. The cells were treated in a culture solution containing each sample to be tested for 24 hours. Subsequently, a chromosome specimen was prepared from the thus-treated cells. The culture solution employed was an Eagle's MEM (product of NISSUI PHARMACEUTICAL CO., LTD.) medium containing 15% fetal bovine serum (15% FBS-MEM).
In each sample concentration, 100 cells during metaphase were observed, to thereby record types and numbers of the chromosomal aberration.

[3] = test system: P. Vulgalis 08601; assay: Antibacterial activity (MIC), standard method of the Japan Society of Chemotherapy; type: cell-based
Method: (§1) The antimicrobial activities of the compounds of the present invention were determined according to a standard method designated by the Japan Society of Chemotherapy. The results are expressed by MIC (μg/mL) (Table 1). In Table 1, S. aureus 870307 and S. pneumonia J24 are quinolone-resistant bacteria.

[4] = test system: E. faevcalis ATCC 19433; assay: as above; type: cell-based
Method: as §1

[5] = test system: S. aureus FDA 209P; assay: as above; type: cell-based; conditions: Staphylococcus aureus, FDA209P
Method: as §1

[6] = test system: S. flexneri 2A 5503; assay: as above; type: cell-based; conditions: Shigella flexneri, 2A5503, read-out: MIC
Method: as §1

[7] = test system: S. pneumoniae J24; assay: as above; type: cell-based; conditions: Streptococcus pneumoniae
Method: as §1

[8] = test system: S. epidermidis 56500; assay: as above; type: cell-based; conditions: Staphylococcus epidermidis
Method: as §1

[9] = test system: P. aeruginosa 32121; assay: as above; type: cell-based; conditions: Pseudomonas aeruginosa
Method: as §1

[10] = test system: E. coli NIHJ; assay: as above; type: cell-based; conditions: Escherichia coli
Method: as §1

[11] = test system: P. aeruginosa 32104; assay: as above; type: cell-based; conditions: Pseudomonas aeruginosa
Method: as §1

[12] = test system: S. pyogenes G-36; assay: as above; type: cell-based; conditions: Streptococcus pyogenes, G36
Method: as §1

[13] = test system: S. marcescens 10100; assay: as above; type: cell-based; conditions: Serratia marcescens
Method: as §1

[14] = test system: S. maltophilia IID 1275; assay: as above; type: cell-based; conditions: Stenotrophomonas maltophilia, IID1275
Method: as §1

[15] = test system: S. aureus 870307; assay: as above; type: cell-based; conditions: Staphylococcus aureus
Method: as §1

[16] = test system: K. pneumoniae TYPE I; assay: as above; type: cell-based; conditions: Klebsiella pneumoniae
Method: as §1

[17] = P. Vulgalis 08601, read-out: MIC
[18] = E. faevcalis ATCC 19433, read-out: MIC
[19] = S. aureus FDA 209P, read-out: MIC
[20] = S. pneumoniae J24, quinolone-resistant, read-out: MIC
[21] = S. epidermidis 56500, read-out: MIC
[22] = P. aeruginosa 32121, read-out: MIC
[23] = P. aeruginosa 32104, read-out: MIC
[24] = S. pyogenes G-36, read-out: MIC
[25] = S. marcescens 10100, read-out: MIC
[26] = S. maltophilia IID 1275, read-out: MIC
[27] = S. aureus 870307, quinolone-resistant, read-out: MIC
[28] = K. pneumoniae TYPE I, read-out: MIC

Structure (SMILES) | CD50 (50% concentration for inducing convulsion), with 95% confidence limit [1] | Percentile induction of structural aberration (TA %) ([2]; 1 μg/mL) [%] | Percentile induction of structural aberration (TA %) ([2]; 3 μg/mL) [%] | Percentile induction of structural aberration (TA %) ([2]; 10 μg/mL) [%] | Percentile induction of structural aberration (TA %) ([2]; 30 μg/mL) [%] | Percentile induction of structural aberration (TA %) ([2]; 50 μg/mL) [%] | Percentile induction of structural aberration (TA %) ([2]; 100 μg/mL) [%] | Significant increase in number of the cells exhibiting chromosomal aberration [2] | MIC [3, 17] [µg/mL] | MIC [4, 18] [µg/mL] | MIC [5, 19] [µg/mL] | MIC [6] [µg/mL] | MIC [7, 20] [µg/mL] | MIC [8, 21] [µg/mL] | MIC [9, 22] [µg/mL] | MIC ([10]; E. coli NIHJ, read-out: MIC) [µg/mL] | MIC [11, 23] [µg/mL] | MIC [12, 24] [µg/mL] | MIC [13, 25] [µg/mL] | MIC [14, 26] [µg/mL] | also measured
CC[C@H]1CN(c2c(F)cc3c(=O)c(C(=O)O)cn([C@@H]4C[C@@H]4F)c3c2OC)C[C@H]1N [Compound No. 1, 7-[(3S,4S)-3-Amino-4-ethylpyrrolidin-1-yl]-6-fluoro-1-[(1R,2S)-2-fluorocyclopropyl]-8-methoxy-1,4-dihydro-4-oxoquinoline-3-carboxylic acid] | 49.2^b) μg/5 μL/mouse | 0 | 1 | 2 | 3 | 2 | 7 | not observed | 0.012 (≈ 0.0295 µM) | 0.1 (≈ 0.245 µM) | 0.006 (≈ 0.0147 µM) | 0.006 (≈ 0.0147 µM) | 0.025 (≈ 0.0614 µM) | 0.05 (≈ 0.123 µM) | 0.1 (≈ 0.245 µM) | 0.006 (≈ 0.0147 µM) | 0.2 (≈ 0.491 µM) | 0.05 (≈ 0.123 µM) | 0.1 (≈ 0.245 µM) | 0.05 (≈ 0.123 µM) | MIC [15, 27]: 0.2 µg/mL (≈ 0.491 µM); MIC [16, 28]: 0.025 µg/mL (≈ 0.0614 µM)
CC[C@H]1CN(c2c(F)cc3c(=O)c(C(=O)O)cn4c3c2OC[C@@H]4C)C[C@H]1N [Compound No. 3, (3S)-10-[(3S,4S)-3-Amino-4-ethylpyrrolidin-1-yl]-9-fluoro-2,3-dihydro-3-methyl-7-oxo-7H-pyrido[1,2,3-de][1,4]benzoxazine-6-carboxylic acid] | 64.5 (47.7-80.8) μg/5 μL/mouse | 3 | 0 | 2 | 1 | 5 | 9 | not observed | 0.006 (≈ 0.016 µM) | 0.1 (≈ 0.266 µM) | 0.012 (≈ 0.032 µM) | 0.006 (≈ 0.016 µM) | 0.1 (≈ 0.266 µM) | 0.05 (≈ 0.133 µM) | 0.05 (≈ 0.133 µM) | 0.006 (≈ 0.016 µM) | 0.1 (≈ 0.266 µM) | 0.1 (≈ 0.266 µM) | 0.025 (≈ 0.0666 µM) | 0.2 (≈ 0.533 µM) | MIC [15, 27]: 0.78 µg/mL (≈ 2.08 µM); MIC [16, 28]: 0.05 µg/mL (≈ 0.133 µM)
C[C@H]1CN(c2c(F)cc3c(=O)c(C(=O)O)cn4c3c2OC[C@@H]4C)C[C@H]1N [Comparative Compound B, (3S)-10-[(3S,4S)-3-Amino-4-methylpyrrolidin-1-yl]-9-fluoro-2,3-dihydro-3-methyl-7-oxo-7H-pyrido[1,2,3-de][1,4]benzoxazine-6-carboxylic acid-hydrochloride, reference compound] | 28.6 (16.8-48.5)^a) μg/5 μL/mouse |  |  |  |  |  |  |  |  |  |  | 0.012 |  |  |  |  |  |  |  |  | MIC [3]: 0.006 µg/mL; MIC [4]: 0.2 µg/mL; MIC [5]: 0.012 µg/mL; MIC ([7]; J24): 0.1 µg/mL; MIC [8]; 56500: 0.1 µg/mL; MIC [9]; 32121: 0.025 µg/mL; MIC [10]: 0.012 µg/mL; MIC [11]; 32104: 0.1 µg/mL; MIC [12]: 0.1 µg/mL; MIC [13]; 10100: 0.05 µg/mL; MIC [14]: 0.39 µg/mL; MIC [15]; 870307: 3.13 µg/mL; MIC [16]: 0.05 µg/mL
COc1c(N2C[C@@H](N)[C@@H](C)C2)c(F)cc2c(=O)c(C(=O)O)cn([C@@H]3C[C@@H]3F)c12 [Comparative Compound A, 7-[(3S,4S)-3-Amino-4-methylpyrrolidin-1-yl]-6-fluoro-1-[(1R,2S)-2-fluorocyclopropyl]-1,4-dihydro-8-methoxy-4-oxoquinoline-3-carboxylic acid-hydrochloride, reference compound] | 12.7 (7.7-24.9)^a) μg/5 μL/mouse |  |  |  |  |  |  |  |  |  |  | 0.006 |  |  |  |  |  |  |  |  | MIC [3]: 0.006 µg/mL; MIC [4]: 0.1 µg/mL; MIC [5]: 0.012 µg/mL; MIC ([7]; J24): 0.025 µg/mL; MIC [8]; 56500: 0.05 µg/mL; MIC [9]; 32121: 0.05 µg/mL; MIC [10]: 0.006 µg/mL; MIC [11]; 32104: 0.1 µg/mL; MIC [12]: 0.05 µg/mL; MIC [13]; 10100: 0.05 µg/mL; MIC [14]: 0.1 µg/mL; MIC [15]; 870307: 0.39 µg/mL; MIC [16]: 0.05 µg/mL
